From paper PMC7835349 (Communications Biology, 2021) come the findings set out here.

Values joined by “and” are separate entries in the source; they are usually repeats but may differ in a detail not shown here. Equal entries are not always repeated.

For assay [1], the system named is OCI-LY10 xenograft. Description: OCI-LY10 xenograft efficacy and survival. The class given is in vivo, C.B-17 SCID mouse. Details: OCI-LY10 xenograft efficacy, individual animals: unit not given here. To be noted: for OCI-LY10 xenograft efficacy, individual animals: Acalabrutinib 12.5mpk BID. As for the experimental part:
(§1) Female C.B.−17 SCID mice were purchased from Charles River Laboratories. Mice were 5–8 weeks old at the time of tumour implantation. All xenograft studies were conducted at our Association for the Assessment and Accreditation of Laboratory Animal Care accredited facility in Waltham, MA in accordance with ethical regulations described in the guidelines established by the internal Institutional Animal Care and Use Committee. The dendrimer conjugates were formulated in citrate/phosphate buffer pH 5.0, diluted 1:10 with 5% glucose containing 1% w/v Kolliphor HS15, and AZD4320 was formulated in 30% HP-β-CD and dosed as a weekly intravenous (IV) administration at a volume of 5 ml/kg at the indicated doses. Five million RS4;11, five million SUDHL-4 or five million OCI-LY-10 cells were injected subcutaneously in the right flank of mice in a volume of 0.1 ml. Tumour volumes (measured by caliper), animal body weight, and tumor condition were recorded twice weekly for the duration of the study. The tumour volume was calculated (taking length to be the longest diameter across the tumour and width to be the corresponding perpendicular diameter) using the formula: length (mm) x width (mm)^2/0.52. For efficacy studies, mice were randomized based on tumour volumes using stratified sampling and enrolled into control and treatment groups. Tumour growth inhibition from the start of treatment was quantified by measuring the difference in tumour volume between control and treated groups. Survival analysis was evaluated using Mantel-Cox test. Tumours were also taken for bioanalysis.

Assay [2] relates to SUDHL-4 xenograft. Description: SUDHL-4 xenograft efficacy and survival. The format is in vivo, C.B-17 SCID mouse. To be noted: Rituxan (Rtx) 10 mg/kg. As for the experimental part:
as §1

Consider `CC#CC(=O)N1CCC[C@H]1c1nc(-c2ccc(C(=O)Nc3ccccn3)cc2)c2c(N)nccn12` [acalabrutinib, reference compound], for which the “OCI-LY10 xenograft efficacy, individual animals” value was 127 and 164 and 248 and 101 and 210 and 188 and 174 and 141 in assay [1] (day 18); 221 and 332 and 538 and 104 and 333 and 303 and 198 and 259 in assay [1] (day 21); 299 and 256 and 495 and 88 and 284 and 527 and 334 and 162 in assay [1] (day 25); 232 and 311 and 519 and 141 and 436 and 334 and 361 and 191 in assay [1] (day 28); 363 and 375 and 663 and 150 and 384 and 401 and 347 and 391 in assay [1] (day 32); 402 and 443 and 532 and 209 and 471 and 429 and 383 and 277 in assay [1] (day 35). For the same compound, the “OCI-LY10 xenograft efficacy, individual animals” value in assay [1] (day 39) is 393 and 553 and 891 and 198 and 472 and 366 and 578 and 547; in assay [1] (day 42), 405 and 474 and 589 and 106 and 385 and 656 and 416 and 224. Further, the “monotherapy activity” value in assay [1] (OCI-LY10 DLBCL model) is listed as “neither agent showed any demonstrable monotherapy activity”.

As to Rituxan (Rtx), the “SUDHL-4 xenograft efficacy, Geo Mean” value in assay [2] (day 1) is 207.17; in assay [2] (day 5), 194.343; in assay [2] (day 9), 229.272; in assay [2] (day 12), 236.829; in assay [2] (day 16), 277.244; in assay [2] (day 19), 341.784. For the same compound, the “SUDHL-4 xenograft efficacy, Geo Mean” value in assay [2] (day 23) is reported as 461.782; in assay [2] (day 26), 534.569; in assay [2] (day 29), 692.979; in assay [2] (day 32) it was 702.104.
